Measurements from the supplement of paper PMC4862054.

Tests used:
MDA-MB-453 [1] = test: normalised viability (% of control), CellTiter-Blue; higher = more viable cells (about 100 = DMSO control); settings: 1000 nM; incubation time: 72 h
Outline: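 Plates were quality-checked by Z'-factor and normalised to vehicle (100) and a positive kill control (0). The underlying assay incubated breast cancer cell lines for 72 h on 384-well plates with compound, then added 2.5 µl CellTiter-Blue for 2 h at 37 °C and read at 560/590 nm. The value is normalised viability at a single listed concentration of the series.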

BT-549 [2] = test: normalised viability (% of control), CellTiter-Blue; higher = more viable cells (100 = DMSO, 0 = benzethonium chloride kill control); settings: 1 nM; incubation time: 72 h
Experimental: (§1)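 DSRT, CellTiter-Blue viability, 72 h incubation. Signal is normalised to DMSO and benzethonium chloride controls. Value is the normalised response at dose 1.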

SK-BR-3 [3] = test: as above; settings: 1 nM; incubation time: 72 h
Experimental: as §1

BT-474 [4] = test: as above; settings: 1 nM; incubation time: 72 h
Experimental: as §1

MDA-MB-453 [5] = test: as above; settings: 1 nM; incubation time: 72 h
Experimental: as §1

DU-4475 [6] = test: as above; settings: 1 nM; incubation time: 72 h
Experimental: as §1

CAL-85-1 [7] = test: as above; settings: 1 nM; incubation time: 72 h
Experimental: as §1

HCC1599 [8] = test: as above; settings: 1 nM; incubation time: 72 h
Experimental: as §1

MDA-MB-436 [9] = test: as above; settings: 1 nM; incubation time: 72 h
Experimental: as §1

MDA-MB-231 [10] = test: as above; settings: 1 nM; incubation time: 72 h
Experimental: as §1

MDA-MB-468 [11] = test: as above; settings: 1 nM; incubation time: 72 h
Experimental: as §1

HCC1143 [12] = test: as above; settings: 1 nM; incubation time: 72 h
Experimental: as §1

CAL-51 [13] = test: as above; settings: 1 nM; incubation time: 72 h
Experimental: as §1

BT-549 [14] = test: normalised viability (% of control), CellTiter-Blue; higher = more viable cells (about 100 = DMSO control); settings: 100 nM; incubation time: 72 h
Experimental: (§2)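 DSRT, CellTiter-Blue viability, 72 h incubation. Signal is normalised to DMSO and benzethonium chloride controls. Value is the normalised response at dose 3.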

SK-BR-3 [15] = test: as above; settings: 100 nM; incubation time: 72 h
Experimental: as §2

BT-474 [16] = test: as above; settings: 100 nM; incubation time: 72 h
Experimental: as §2

HDQ-P1 = test: as above; settings: 10 nM; incubation time: 72 h
Experimental: as §2

MDA-MB-453 [17] = test: as above; settings: 10 nM; incubation time: 72 h
Experimental: as §2

CAL-120 = test: as above; settings: 100 nM; incubation time: 72 h
Experimental: as §2

DU-4475 [18] = test: as above; settings: 10 nM; incubation time: 72 h
Experimental: as §2

CAL-85-1 [19] = test: as above; settings: 10 nM; incubation time: 72 h
Experimental: as §2

Hs578T = test: as above; settings: 100 nM; incubation time: 72 h
Experimental: as §2

MFM-223 = test: as above; settings: 100 nM; incubation time: 72 h
Experimental: as §2

HCC1937 = test: as above; settings: 100 nM; incubation time: 72 h
Experimental: as §2

HCC1599 [20] = test: as above; settings: 100 nM; incubation time: 72 h
Experimental: as §2

CAL-148 = test: as above; settings: 10 nM; incubation time: 72 h
Experimental: as §2

MDA-MB-436 [21] = test: as above; settings: 100 nM; incubation time: 72 h
Experimental: as §2

MDA-MB-231 [22] = test: as above; settings: 100 nM; incubation time: 72 h
Experimental: as §2

MDA-MB-468 [23] = test: as above; settings: 100 nM; incubation time: 72 h
Experimental: as §2

HCC1143 [24] = test: as above; settings: 100 nM; incubation time: 72 h
Experimental: as §2

CAL-51 [25] = test: as above; settings: 10 nM; incubation time: 72 h
Experimental: as §2

| Compound | normalised viability (MDA-MB-453 [1]) [%] | normalised viability (BT-549 [2]) [%] | normalised viability (SK-BR-3 [3]) [%] | normalised viability (BT-474 [4]) [%] | normalised viability (MDA-MB-453 [5]) [%] | normalised viability (DU-4475 [6]) [%] | normalised viability (CAL-85-1 [7]) [%] | normalised viability (HCC1599 [8]) [%] | normalised viability (MDA-MB-436 [9]) [%] | normalised viability (MDA-MB-231 [10]) [%] | normalised viability (MDA-MB-468 [11]) [%] | normalised viability (HCC1143 [12]) [%] | normalised viability (CAL-51 [13]) [%] | normalised viability (BT-549 [14]) [%] | normalised viability (SK-BR-3 [15]) [%] | normalised viability (BT-474 [16]) [%] | normalised viability (HDQ-P1) [%] | normalised viability (MDA-MB-453 [17]) [%] | normalised viability (CAL-120) [%] | normalised viability (DU-4475 [18]) [%] | normalised viability (CAL-85-1 [19]) [%] | normalised viability (Hs578T) [%] | normalised viability (MFM-223) [%] | normalised viability (HCC1937) [%] | normalised viability (HCC1599 [20]) [%] | normalised viability (CAL-148) [%] | normalised viability (MDA-MB-436 [21]) [%] | normalised viability (MDA-MB-231 [22]) [%] | normalised viability (MDA-MB-468 [23]) [%] | normalised viability (HCC1143 [24]) [%] | normalised viability (CAL-51 [25]) [%] |
| --- | --- | --- | --- | --- | --- | --- | --- | --- | --- | --- | --- | --- | --- | --- | --- | --- | --- | --- | --- | --- | --- | --- | --- | --- | --- | --- | --- | --- | --- | --- | --- |
| O=C(O)C(=O)O.[NH-][C@@H]1CCCC[C@H]1[NH-].[Pt+2] [Oxaliplatin] | 109 | 89 | 91 | 103 | 100 | 99.8 | 86.7 | 93 | 106 | 101 | 109 | 93 | 93.3 | 89.1 | 94 | 127 | 119 | 114 | 91 | 95.9 | 92 | 95.7 | 91.8 | 89.1 | 96.1 | 127 | 96.1 | 89 | 107 | 98.2 | 103 |
| Nc1nc2[nH]cc(CCc3ccc(C(=O)N[C@@H](CCC(=O)O)C(=O)O)cc3)c2c(=O)[nH]1 [Pemetrexed] | 104 | 101 | 98.9 | 106 | 101 | 99.3 | 89.2 | 92.6 | 104 | 100 | 96.9 | 92.5 | 109 | 87.8 | 84 | 125 | 120 | 118 | 86 | 104 | 99.8 | 102 | 91.6 | 92.8 | 88.9 | 101 | 97.2 | 94.9 | 99 | 91.6 | 108 |
| COc1cc([C@@H]2c3cc4c(cc3[C@@H](O[C@@H]3O[C@@H]5CO[C@@H](c6cccs6)O[C@H]5[C@H](O)[C@H]3O)[C@H]3COC(=O)[C@H]23)OCO4)cc(OC)c1O [Teniposide] | 73.1 | 85 | 97.2 | 87.9 | 113 | 94.6 | 105 | 98.3 | 110 | 132 | 98.9 | 98.1 | 105 | 70.9 | 52.3 | 105 | 106 | 111 | 75.2 | 67.2 | 101 | 71.5 | 101 | 61.4 | 87.8 | 95.5 | 81.8 | 81.8 | 79.8 | 79.4 | 95 |
| COc1cc2nccc(Oc3ccc(NC(=O)Nc4cc(C)on4)c(Cl)c3)c2cc1OC [Tivozanib] | 91.7 | 81.1 | 102 | 95 | 97.4 | 102 | 114 | 115 | 102 | 88 | 98.3 | 103 | 101 | 90.4 | 105 | 112 | 79 | 94.5 | 106 | 115 | 103 | 91.5 | 80.8 | 88.2 | 119 | 95.6 | 88.1 | 91.1 | 96.8 | 113 | 99 |
